Source: US20160223562A1, “Method for Determining the Concentration of a Peptide” (JPT Peptide Technologies GmbH, priority 2010, published 2016)
Square brackets hold non-standard residues; d marks the D form. Peptide text beside a SMILES is read from it. Tyr(3-NO2) = N[C@@H](Cc1ccc(O)c([N+](=O)[O-])c1)C(=O)O

Tests used:
Trypsin [1] = biological target: T1, Trypsin (Sus scrofa, UniProt P00761); test: Trypsin cleavage of C-terminal quantification tag -SA-nitroTyr-G from peptides, LC-MS with UV detection at 350 nm; assay type: biochemical; conditions: after reduction and alkylation, trypsin enzyme/substrate 1:50 over night at RT
T1 construct: purchased Promega Corporation V511
Experimental: 23 peptides carrying the C-terminal quantification-tag-SA-nitroTyr-G-OH (SEQ ID NO:2) were synthesized by Fmoc-based solid phase peptide synthesis and purified by HPLC. Each peptide was subjected to the following trypsin cleavage protocol:
Trypsin Activation: Trypsin (20 μg, sequencing grade modified trypsin, Promega Corporation, Madison, Wis., USA, catalogue no. V511, specific activity 16.965 u/mg) was dissolved in Trypsin resuspension buffer (200 μL, Promega, catalogue no. V542A, ingredient 50 mM acetic acid) and incubated for 15 min at 37° C.
Reduction and alkylation: The peptide (approx. 0.05 mg) was dissolved in 1 M urea and 100 mM fresh ammonium hydrogen carbonate (300 μL). TCEP (Tris(2-carboxyethyl) phosphine hydrochloride, 0.2 M, 7.5 μL, final concentration 5 mM) was added and the solution incubated at 37° C. for 1 h. After addition of iodoacetamide (0.5 M, 6.0 μL, final concentration 10 mM) the solution was incubated at RT in the dark for another 30 min. Digestion: The sample was digested with activated Trypsin solution (10 μL per well, 1.0 μg, resulting enzyme/substrate ratio 1:50) over night at RT. To stop the digestion, HCl (2 M, 8 μL final concentration 50 mM) and TFA (3.2 μL, final concentration 1%, pH<2) were added. Finally, the sample was analyzed by LC-MS at 350 nm.

Trypsin [2] = biological target: T1, Trypsin; test: Trypsin cleavage of N-terminal quantification tag Ac-nitroTyr-SGK- from peptides, LC-MS with UV detection at 350 nm; assay type: biochemical; conditions: for Kusebauch 24 h, RT: Percent Cleavage of Tag [by UV350 - Peptide-Tag vs. Tag]: trypsin protocol of example 9, 24 h

T1 sequence (P00761 9-231): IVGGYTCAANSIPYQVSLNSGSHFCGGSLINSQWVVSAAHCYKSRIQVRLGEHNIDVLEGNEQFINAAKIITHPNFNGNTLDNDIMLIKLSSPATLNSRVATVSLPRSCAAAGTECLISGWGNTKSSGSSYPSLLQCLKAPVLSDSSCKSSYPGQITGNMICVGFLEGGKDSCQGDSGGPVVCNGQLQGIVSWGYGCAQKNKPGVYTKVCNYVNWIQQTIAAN

cleavage efficiency in words (Trypsin [2]; trypsin) | Molecule | Percent Cleavage of Tag [by UV at 350 nm] (Trypsin [1]) | Kusebauch 24 h, RT: Percent Cleavage of Tag [by UV350 - Peptide-Tag vs. Tag] (Trypsin [2])
– | CC(=O)N[C@@H](Cc1ccc(O)c([N+](=O)[O-])c1)C(=O)N[C@@H](CO)C(=O)NCC(=O)N[C@@H](CCCCN)C(=O)N[C@@H](C)C(=O)N[C@H](C(=O)N[C@@H](C)C(=O)N[C@@H](CC(C)C)C(=O)N[C@@H](CO)C(=O)N[C@@H](CC(C)C)C(=O)N[C@@H](CC(=O)O)C(=O)N[C@@H](CC(=O)O)C(=O)N[C@H](C(=O)N[C@@H](CCCCN)C(=O)O)C(C)C)C(C)C [Peptide 21, Ac-nitroTyr-SGKAVALSLDDV-K-OH] (Ac-[Tyr(3-NO2)]SGKAVALSLDDVK-OH) | 100% | 100.0%
not efficiently cleaved | CC(=O)N[C@@H](Cc1ccc(O)c([N+](=O)[O-])c1)C(=O)N[C@@H](CO)C(=O)NCC(=O)N[C@@H](CCCCN)C(=O)N[C@@H](CC(=O)O)C(=O)N[C@H](C(=O)N[C@@H](C)C(=O)N[C@@H](CC(C)C)C(=O)N[C@@H](CO)C(=O)N[C@@H](CC(C)C)C(=O)N[C@@H](CC(=O)O)C(=O)N[C@@H](CC(=O)O)C(=O)N[C@H](C(=O)N[C@@H](CCCCN)C(=O)O)C(C)C)C(C)C [Peptide 23, Ac-nitroTyr-SGKDVALSLDDV-K-OH] (Ac-[Tyr(3-NO2)]SGKDVALSLDDVK-OH) | 100% | 59.2%
– | Ac-nitroTyr-SGKATHYFIDLN-K-OH (Ac-[Tyr(3-NO2)]SGKATHYFIDLNK-OH; SMILES CC[C@H](C)[C@H](NC(=O)[C@H](Cc1ccccc1)NC(=O)[C@H](Cc1ccc(O)cc1)NC(=O)[C@H](Cc1c[nH]cn1)NC(=O)[C@@H](NC(=O)[C@H](C)NC(=O)[C@H](CCCCN)NC(=O)CNC(=O)[C@H](CO)NC(=O)[C@H](Cc1ccc(O)c([N+](=O)[O-])c1)NC(C)=O)[C@@H](C)O)C(=O)N[C@@H](CC(=O)O)C(=O)N[C@@H](CC(C)C)C(=O)N[C@@H](CC(N)=O)C(=O)N[C@@H](CCCCN)C(=O)O) [Peptide 1] | 100% | 100.0%
– | Ac-nitroTyr-SGKHTHYFIDLN-K-OH (Ac-[Tyr(3-NO2)]SGKHTHYFIDLNK-OH; SMILES CC[C@H](C)[C@H](NC(=O)[C@H](Cc1ccccc1)NC(=O)[C@H](Cc1ccc(O)cc1)NC(=O)[C@H](Cc1c[nH]cn1)NC(=O)[C@@H](NC(=O)[C@H](Cc1c[nH]cn1)NC(=O)[C@H](CCCCN)NC(=O)CNC(=O)[C@H](CO)NC(=O)[C@H](Cc1ccc(O)c([N+](=O)[O-])c1)NC(C)=O)[C@@H](C)O)C(=O)N[C@@H](CC(=O)O)C(=O)N[C@@H](CC(C)C)C(=O)N[C@@H](CC(N)=O)C(=O)N[C@@H](CCCCN)C(=O)O) [Peptide 7] | 100% | 100.0%
